This is an account of results in US4320051A, “Analgesic tripeptide amides” (American Home Products Corporation, priority 1980, dated 1982).

Assay [1] relates to phenylbenzoquinone-induced writhing. The assay can be described thus: phenylbenzoquinone-induced writhing test. Format: in vivo. The settings on record: subcutaneous, mice. How it is done: Exp. Biol. Med., 95, 729-731 (1957), by establishing three groups of ten mice (Carworth farms) per group (18-27 g. body weight). The animals receive the compound being tested (Examples 9 and 15) subsubcutaneously. Five or 20 minutes later each animal received 0.25 milliliters of the writhing agonist (i.e. 0.02% solution of PBQ). The animals receiving the writhing agonist five minutes after the test compound are observed for a period of ten minutes beginning five minutes after the injection. The animals receiving the writhing agonist 20 minutes after the test compound are observed for ten minutes beginning five minutes after the injection. A compound is an analgesic if it inhibits writhing induced by phenyl benzoquinone.

For assay [2], the system named is opiate receptor (3H-naloxone binding). Description: 3H-naloxone displacement (procedure of Chang et al.). The arrangement: 3H-naloxone displacement ED50: unit not given here. An excerpt: Enkephalin, a natural opiate receptor agonist in the brain, has been identified [see Hughes et al., Nature, 258,577 (1975)] as a mixture of two pentapeptides: H-Tyr-Gly-Gly-Phe-Met-OH (methionine-enkephalin) and H-Tyr-Gly-Gly-Phe-Leu-OH (leucine-enkephalin). […] It has been reported that methionine-enkephalin and leucine-enkephalin, when administered by injection in the brain ventricle in rats, induce a profound analgesia that is fully reversible by naloxone. [See Beluzzi et al., Nature, 260, 625 (1976)].

The conditions of assay [3]: intravenous administration, relative to morphine; cited from earlier work.

“And” between values parts separate entries of the source, which are not always exact repeats. Identical values can stand only once. Square brackets hold non-standard residues; d marks the D form. Ends that are not written are not given here.

On to `C[C@@H](NC(=O)[C@@H](N)Cc1ccc(O)cc1)C(=O)NCC(=O)NC(Cc1ccccc1)CN1CCN(C)CC1` (stereo partly drawn) [Example 9, L-Tyrosyl-D-alanyl-N-[1-[(4-methyl-1-piperazinyl)methyl]-2-phenyl-ethyl]glycinamide], for which the “ED50 mg/kg. (confidence limits)” value is 1.05 (0.62-1.79) mg/kg in assay [1] (Time 15 minutes); 4.60 (3.1-6.9) mg/kg and 6.20 (4.4-8.7) mg/kg in assay [1] (Time 30 minutes). For the same compound, the “3H-naloxone displacement ED50” value in assay [2] is 1.36×10^-7. Moreover, the relative displacement potency in assay [2] (3H-naloxone displacement, morphine=1) is recorded as 1.3.
With Y[dM]GFP-NH2, the “times more potent than morphine” value in assay [3] is given as 5.5 times.
